Results as given in patent US20040180938A1, “Novel butadiene derivatives, process for preparation of the same and intermediates for the synthesis thereof” (priority 2001, published 2004).

In the case of `COC(=O)C(=C(/C)c1ccc(C(=O)O)cc1)/C(=C\c1cccc(OC)c1)C(=O)Nc1ccnc(C)c1.Cl`, the melting point is reported as 232 °C (dec.).
